Test results: US7033578B2, “Antimycotic nail varnish composition” (Polichem S.A., priority 2000, dated 2006)

Tested on: Tricophytes Mentagrophytes
Assay: Inhibition of growth of the onychomycosis pathogen on standard plates (Sabourand Dex., 30° C.)
Type: cell-based
Conditions: ciclopirox 8%, hydroxypropylchitosan 1%; Sabourand Dex. at 30° C.; 10, 20 and 30 μl applied
Protocol: Inhibition of the pathogen responsible for onychomycosis in humans was tested in accordance with standard procedures on standard plates. Comparison of the antimycotic effect of ciclopirox (8%) alone and, hydroxypropychitosan (1%) alone with the combination of these two compounds (8 and 1%, respectively) with respect to the growth of Tricophytes Mentagrophytes on Sabourand Dex. at 30° C. gave the following results (amounts applied in each case 10, 20 and 30 μl): […]

Cc1cc(C2CCCCC2)n(O)c(=O)c1 [ciclopirox]
antimycotic effect: inhibition of growth of Tricophytes Mentagrophytes: good inhibition
